{"source": "patent US10196357B2", "about": "“Biaryl compositions and methods for modulating a kinase cascade” (Athenex, Inc., priority 2007, dated 2019)", "key": {"[1]": {"tested_on": "K562 (CML)", "assay": "growth inhibition (BrdU), K562", "type": "cell-based, Human", "conditions": "K562 (CML)", "excerpt": "(§1) Growth Inhibition. […] T1 values≤T0 values were designated as T, cytotoxicity."}, "[2]": {"tested_on": "MDA231 (Breast)", "assay": "growth inhibition (BrdU), MDA231", "type": "cell-based, Human", "conditions": "MDA231 (Breast) cells", "excerpt": "as §1"}, "[3]": {"tested_on": "c-Src 3T3 cells", "assay": "BrdU cell growth inhibition, c-Src 3T3", "type": "cell-based, mouse", "conditions": "for GI50: c-Src 3T3 (c-Src527F/NIH3T3) cells, read-out: GI50", "outline": "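c-Src 3T3 cells on poly-D-lysine plates in DMEM with 2% FBS, L-glutamine, pyruvate and 10 mM HEPES. Compounds came from 20 mM DMSO stocks diluted in DMEM/10% FBS. Proliferation was read by colorimetric BrdU-incorporation ELISA, and GI50 was extrapolated from growth relative to time-zero and untreated controls.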"}, "[4]": {"tested_on": "HT29 cell line", "assay": "BrdU cell growth inhibition, HT29", "type": "cell-based, human", "conditions": "for GI50: read-out: GI50", "outline": "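HT29 colon carcinoma cells treated with compounds diluted from 20 mM DMSO stocks into DMEM/10% FBS. Proliferation read as colorimetric BrdU incorporation ELISA; GI calculated relative to untreated cells at time 0 and control cells at day n, with GI50 extrapolated. Net cell loss below time-0 level scored as cytotoxicity.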"}, "[5]": {"tested_on": "PDGF receptor tyrosine kinase Y572/574", "assay": "PDGF receptor autophosphorylation in cells", "type": "cell-based", "conditions": "c-Src527F/NIH-3T3 cells", "protocol": "HT29 (colon cancer) and c-Src527F/NIH-3T3 (Src transformed) cell lines were treated with KX2-391 or with AstraZeneca's ATP competitive Src inhibitor AZ28. AZ28 serves as a positive comparator to show what a validated Src inhibitor should do in these assays. After treatment with compound, cells were lysed, subjected to PAGE and probed with a battery of antibodies. […] In addition, off-target protein phosphorylation was also investigated. Further, induction of apoptosis was evaluated via Caspase 3 cleavage. Multiple doses of each compound were tested because the trends in response to increasing drug concentration are the most reliable indicator of activity.\nThe same range of multiples of the GI50 for AZ28 in these two cell lines was run as a comparison.\nThis is thought not to be a direct Src substrate in cells."}, "[6]": {"assay": "brain exposure after oral administration", "type": "in vivo, male CD-1 mice", "conditions": "for AUClast: Brain; for KX2-361 Brain Concentrations, Group A / KX2-361 Brain Concentrations, Group B / KX2-361 Brain Concentrations, Group C: Male CD-1 mice, single PO dose 10 mg/kg (Group 3)", "protocol": "Plasma concentrations were measured in mice after oral administration. All doses were formulated in purified water. Four groups of male CD-1 mice were dosed after an overnight fast and fed 4 hours post-dose. Dosing was as follows:\nProtein was precipitated with 0.25 mL acetonitrile for plasma, 0.25 mL for brain. After centrifugation, supernatant was directly injected into an LC/MS system. The limit of quantitation was 1 ng/mL using a 50 μL aliquot for plasma and a 50 μL, aliquot for brain. The standard curve was 1 to 1,000 ng/mL for both plasma and brain. HPLC conditions were as follows:\nHPLC System: Shimadzu SCL-10 System\n• Analytical Column: Aquasil C18 5 μm 100×2 mm column. • Column Temperature: Ambient temperature • Autosampler Temperature: Ambient temperature • Mobile Phase A) 10 mM Ammonium formate in water (pH 4). • B) Acetonitrile. • Flow Rate: 0.6 mL/min • Injection Volume: 2 μL • Gradient:\n• Mass Spectrometry Conditions were as follows: • Instrument: ABI Sciex API 4000 • Mode: ESI+ • Experiment: MRM (multiple reaction monitoring) • Transitions: KX2-391: m/z 432.4→114.2 (Rt=3.11 minute) • KX2-361: m/z 406.1→253.2 (Rt=3.33 minute)"}}, "note": "Where two headings read alike, the source gives them in different places.", "data": [{"smiles": "O=C(Cc1ccc(-c2ccc(OCCN3CCOCC3)cc2)cn1)NCc1ccccc1", "note": "[KXO1]", "values": [{"measurement": "GI50", "setting": "[1]", "result": 13, "unit": "nM"}, {"measurement": "GI50", "setting": "[2]", "result": 20, "unit": "nM"}, {"measurement": "GI50", "setting": "[3]", "result": 23, "unit": "nM"}, {"measurement": "GI50", "setting": "[4]; HT29 (Colon) cells", "result": 25, "unit": "nM"}, {"measurement": "PDGF receptor Y572/574 autophosphorylation", "setting": "[5]", "result": "not inhibited"}]}, {"smiles": "O=C(Cc1ccc(-c2ccc(N3CCOCC3)cc2)cn1)NCc1cccc(F)c1", "note": "[KX2-361]", "values": [{"measurement": "AUClast", "setting": "[6]; single oral dose 10 mg/kg", "result": 656, "unit": "ng·h/g"}, {"measurement": "AUClast", "setting": "[6]; single oral dose 50 mg/kg", "result": 3338, "unit": "ng·h/g"}, {"measurement": "KX2-361 Brain Concentrations, Group A", "setting": "[6]; 0 hr", "result": "BLQ (BLQ: Below Limit of Quantitation (1 ng/mL))"}, {"measurement": "KX2-361 Brain Concentrations, Group B", "setting": "[6]; 0 hr", "result": "BLQ (BLQ: Below Limit of Quantitation (1 ng/mL))"}, {"measurement": "KX2-361 Brain Concentrations, Group C", "setting": "[6]; 0 hr", "result": "BLQ (BLQ: Below Limit of Quantitation (1 ng/mL))"}, {"measurement": "KX2-361 Brain Concentrations, Group A", "setting": "[6]; 0.5 hr", "result": 43.98, "unit": "ng/g"}, {"measurement": "KX2-361 Brain Concentrations, Group B", "setting": "[6]; 0.5 hr", "result": 138.55, "unit": "ng/g"}, {"measurement": "KX2-361 Brain Concentrations, Group C", "setting": "[6]; 0.5 hr", "result": 116.84, "unit": "ng/g"}, {"measurement": "KX2-361 Brain Concentrations, Group B", "setting": "[6]; 1 hr", "result": 334.71, "unit": "ng/g"}, {"measurement": "KX2-361 Brain Concentrations, Group C", "setting": "[6]; 1 hr", "result": 273.32, "unit": "ng/g"}, {"measurement": "KX2-361 Brain Concentrations, Group A", "setting": "[6]; 2 hr", "result": 109.78, "unit": "ng/g"}, {"measurement": "KX2-361 Brain Concentrations, Group B", "setting": "[6]; 2 hr", "result": 78.76, "unit": "ng/g"}, {"measurement": "KX2-361 Brain Concentrations, Group C", "setting": "[6]; 2 hr", "result": 336.07, "unit": "ng/g"}, {"measurement": "KX2-361 Brain Concentrations, Group A", "setting": "[6]; 5 hr", "result": "BLQ (BLQ: Below Limit of Quantitation (1 ng/mL))"}, {"measurement": "KX2-361 Brain Concentrations, Group C", "setting": "[6]; 5 hr", "result": 47.85, "unit": "ng/g"}, {"measurement": "AUClast Brain/AUClast Plasma Ratio", "setting": "[6]; single oral dose 10 mg/kg", "result": 0.76}, {"measurement": "activity at 0.1 µM", "setting": "[3]; Mus musculus, NIH3T3, 100 nM, read-out: c-Src 3T3 Growth, % of Control Mean, n = 3", "result": "< 0", "unit": "%"}, {"measurement": "activity at 1 µM", "setting": "[3]; Mus musculus, NIH3T3, 1.0 uM, read-out: c-Src 3T3 Growth, % of Control Mean, n = 3", "result": "< 0", "unit": "%"}, {"measurement": "activity at 10 µM", "setting": "[3]; Mus musculus, NIH3T3, 10 uM, read-out: c-Src 3T3 Growth, % of Control Mean, n = 3", "result": "< 0", "unit": "%"}, {"measurement": "GI50", "setting": "[3]; Mus musculus", "result": 11, "unit": "nM"}, {"measurement": "GI50", "setting": "[4]; Homo sapiens, HT-29, HT29 (Colon) cells", "result": 10, "unit": "nM"}, {"measurement": "activity at 0.05 µM", "setting": "[4]; Homo sapiens, HT-29, 50 nM, read-out: HT-29 Growth, % of Control Mean, n = 3", "result": "< 0", "unit": "%"}, {"measurement": "activity at 0.5 µM", "setting": "[4]; Homo sapiens, HT-29, 500 nM, read-out: HT-29 Growth, % of Control Mean, n = 3", "result": "< 0", "unit": "%"}, {"measurement": "activity at 5 µM", "setting": "[4]; Homo sapiens, HT-29, 5 uM, read-out: HT-29 Growth, % of Control Mean, n = 3", "result": "< 0", "unit": "%"}]}]}
